In brackets after ≈: the same amount, converted by molar mass.
What was measured:
[1] = tested on: CCRF/CEM (human leukemia); test: Antiproliferative assay in vitro (MTT); format: cell-based; settings: for IC50: Homo sapiens, CCRF-CEM, read-out: Cytotoxic activity IC50, Human CCRF/CEM
Description: (§1) Cytotoxic activities of all newly synthesized compounds including betulin (1) were tested in SRB or MTT (in the case of leukemia cells) assay for their antiproliferative activity in vitro against three human cancer cell lines: SW707 (colorectal adenocarcinoma), CCRF/CEM (leukemia), T47D (breast cancer), and murine leukemia P388 as well as Balb3T3 normal fibroblasts cell lines. […] A value of less than 4 μg/mL was considered as an antiproliferative activity criterion for synthetic compounds [31].
(§2) The following established in vitro cell lines were applied: SW707 (human colorectal adenocarcinoma), CCRF/CEM (human leukemia), T47D (human breast cancer), P388 (mouse leukemia) and Balb3T3 (normal mouse fibroblasts). All lines were obtained from the American Type Culture Collection (Rockville, MD, USA) and maintained at the Cell Culture Collection of the Institute of Immunology and Experimental Therapy (Wroclaw, Poland).
(§3) Twenty-four hours before addition of the tested agents, the cells were plated in 96-well plates (Sarstedt, Numbrecht, Germany) at a density of 10^4 cells per well in 100 μL of culture medium. The cells were cultured in the opti-MEM medium supplemented with 2 mM glutamine (Gibco, Grand Island, NY, USA), streptomycin (50 μg/mL), penicillin (50 U/mL) (both antibiotics from Polfa, Tarchomin, Poland) and 5% fetal calf serum (Gibco). The cell cultures were maintained at 37 °C in humid atmosphere saturated with 5% CO2.
(§4) The compounds were dissolved in DMSO and culture medium (1:9) to the concentration of 1 mg/mL, and subsequently diluted in culture medium to reach the required concentrations (ranging from […]).
(§5) The in vitro cytotoxic effect of all agents was examined using the SRB assay for adherent cells and MTT assay for leukemia cells as described by Wietrzyk et al.. Each compound in given concentration was tested in triplicates in each experiment, which was repeated 3–5 times.

P388 (mouse leukemia) = test: Antiproliferative assay in vitro (MTT); format: cell-based; settings: for IC50: Mus musculus, P388, read-out: Cytotoxic activity IC50, Murine P388
Description: as §1, §2, §3, §4, §5

[2] = tested on: T47D (human breast cancer); test: Antiproliferative assay in vitro (SRB); format: cell-based; settings: for IC50: Homo sapiens, T47D, read-out: Cytotoxic activity IC50, Human T47D
Description: as §1, §2, §3, §4, §5

[3] = tested on: Balb3T3 (normal mouse fibroblasts); test: Antiproliferative assay in vitro (SRB); format: cell-based
Description: as §1, §2, §3, §4, §5

[4] = tested on: SW707 (human colorectal adenocarcinoma); test: Antiproliferative assay in vitro (SRB); format: cell-based; settings: for IC50: Homo sapiens, SW707, read-out: Cytotoxic activity IC50, Human SW707
Description: as §1, §2, §3, §4, §5

For C#CCOC(=O)O[C@H]1CC[C@@]2(C)C(CC[C@]3(C)C2CCC2C4C(C(=C)C)CC[C@]4(COC(C)=O)CC[C@]23C)C1(C)C (stereo partly shown) [Compound 8a, 28-O-Acetyl-3-O'-propargyloxycarbonylbetulin], the melting point was 188 to 189 °C, the “Cytotoxic activity IC50, Human CCRF/CEM” value [1] was “Neg” and the “Cytotoxic activity IC50, Murine P388” value (P388 (mouse leukemia)) was “Neg”. The “Cytotoxic activity IC50, Human T47D” value [2] was “Neg”, the “Cytotoxic activity IC50, Murine Balb3T3” value [3] was “Neg” and the “Cytotoxic activity IC50, Human SW707” value [4] was “Neg”.

With C=C(C)C1CC[C@]2(COC(=O)OCC#CC)CC[C@]3(C)C(CCC4[C@@]5(C)CC[C@H](O)C(C)(C)C5CC[C@]43C)C12 (stereo partly shown) [Compound 3c, 28-O-(2-Butynyloxycarbonyl)betulin] the melting point was 112 to 114 °C, the IC50 [1] was 6.8 ± 2.9 µg/mL (≈ 12.6 µM) and the IC50 (P388 (mouse leukemia)) was 5.5 ± 2.8 µg/mL (≈ 10.2 µM). The IC50 [2] was 20.1 ± 5.3 µg/mL (≈ 37.3 µM) and the IC50 [4] was 36.9 ± 6.3 µg/mL (≈ 68.5 µM).

With C#CCOC(=O)OC[C@]12CCC(C(=C)C)C1C1CCC3[C@@]4(C)CC[C@H](OC(=O)OCC#C)C(C)(C)C4CC[C@@]3(C)[C@]1(C)CC2 (stereo partly shown) [Compound 4a, 3,28-O,O'-Di(propargyloxycarbonyl)betulin] the melting point was 125 to 127 °C, the “Cytotoxic activity IC50, Human CCRF/CEM” value [1] was “Neg” and the IC50 (P388 (mouse leukemia)) was 33.4 ± 1.7 µg/mL (≈ 55 µM). The “Cytotoxic activity IC50, Human T47D” value [2] was “Neg”, the “Cytotoxic activity IC50, Murine Balb3T3” value [3] was “Neg” and the “Cytotoxic activity IC50, Human SW707” value [4] was “Neg”.

For C#CCCOC(=O)OC[C@]12CCC(C(=C)C)C1C1CCC3[C@@]4(C)CC[C@H](OC(=O)OCCC#C)C(C)(C)C4CC[C@@]3(C)[C@]1(C)CC2 (stereo partly shown) [Compound 4b, 3,28-O,O'-Di(3-butynyloxycarbonyl)betulin], the melting point was 140 to 142 °C, the “Cytotoxic activity IC50, Human CCRF/CEM” value [1] was “Neg” and the “Cytotoxic activity IC50, Murine P388” value (P388 (mouse leukemia)) was “Neg”. The “Cytotoxic activity IC50, Human T47D” value [2] was “Neg”, the “Cytotoxic activity IC50, Murine Balb3T3” value [3] was “Neg” and the “Cytotoxic activity IC50, Human SW707” value [4] was “Neg”.

In the case of C=C(C)C1CC[C@]2(COC(=O)OCC)CC[C@]3(C)C(CCC4[C@@]5(C)CC[C@H](O)C(C)(C)C5CC[C@]43C)C12 (stereo partly shown) [Compound 3d, 28-O-Ethoxycarbonylbetulin], the melting point is reported as 94 to 96 °C, the IC50 [1] is reported as 4.1 ± 0.2 µg/mL (≈ 7.96 µM) and the IC50 (P388 (mouse leukemia)) is reported as 3.8 ± 1.9 µg/mL (≈ 7.38 µM). For the same molecule, the IC50 [2] was 6.6 ± 1.3 µg/mL (≈ 12.8 µM) and the IC50 [4] was 20.8 ± 14.7 µg/mL (≈ 40.4 µM).

With C#CCCOC(=O)OC[C@]12CCC(C(=C)C)C1C1CCC3[C@@]4(C)CC[C@H](O)C(C)(C)C4CC[C@@]3(C)[C@]1(C)CC2 (stereo partly shown) [Compound 3b, 28-O-(3-Butynyloxycarbonyl)betulin] the melting point was 86 to 88 °C, the IC50 [1] was 5.2 ± 1.4 µg/mL (≈ 9.65 µM) and the IC50 (P388 (mouse leukemia)) was 3.6 ± 1.3 µg/mL (≈ 6.68 µM). The IC50 [2] was 6.9 ± 2.3 µg/mL (≈ 12.8 µM) and the IC50 [4] was 22.6 ± 11.9 µg/mL (≈ 41.9 µM).

For C#CC(=O)OCC12CCC(C(=C)C)C1C1CCC3C4(C)CCC(O)C(C)(C)C4CCC3(C)C1(C)CC2 (stereo not shown) [Compound 5a, 28-O-Propynoylbetulin], the “ID50 value against human leukemia (CCRF/CEM) cell line” value ([1]; CCRF/CEM, abstract wording) was 0.02 µg/mL (≈ 0.0404 µM), the IC50 [1] was 0.02 ± 0.001 µg/mL (≈ 0.0404 µM) and the “selectivity index (SI)” value ([1]; ratio IC50 of normal fibroblast (Balb3T3) / IC50 on CCRF/CEM) was 15. It also gave an IC50 (P388 (mouse leukemia)) of 0.4 ± 0.1 µg/mL (≈ 0.808 µM), an IC50 [2] of 9.1 ± 1.9 µg/mL (≈ 18.4 µM) and an IC50 [4] of 14.9 ± 3.3 µg/mL (≈ 30.1 µM).

Work on C=C(C)[C@@H]1CC[C@]2(COC(C)=O)CC[C@]3(C)[C@H](CC[C@@H]4[C@@]5(C)CC[C@H](O)C(C)(C)[C@@H]5CC[C@]43C)[C@@H]12 [Compound 7a, 28-O-acetylbetulin] yielded an IC50 [1] of 3.4 ± 0.3 µg/mL (≈ 7.01 µM), an IC50 (P388 (mouse leukemia)) of 12.5 ± 14.7 µg/mL (≈ 25.8 µM) and an IC50 [2] of 4.9 ± 0.6 µg/mL (≈ 10.1 µM). For the same molecule, the IC50 [4] was 5.1 ± 2.5 µg/mL (≈ 10.5 µM).

With C=C(C)C1CC[C@]2(COC(C)=O)CC[C@]3(C)C(CCC4[C@@]5(C)CC[C@H](OC(C)=O)C(C)(C)C5CC[C@]43C)C12 (stereo partly shown) [Compound 7b, 3,28-O,O'-diacetylbetulin] the IC50 [1] was 34.1 ± 6.4 µg/mL (≈ 64.7 µM), the IC50 (P388 (mouse leukemia)) was 40.2 ± 5 µg/mL (≈ 76.3 µM) and the “Cytotoxic activity IC50, Human T47D” value [2] was “Neg”. The “Cytotoxic activity IC50, Murine Balb3T3” value [3] was “Neg” and the “Cytotoxic activity IC50, Human SW707” value [4] was “Neg”.

Work on C=C(C)C1CC[C@]2(COC(=O)CC)CC[C@]3(C)C(CCC4[C@@]5(C)CC[C@H](O)C(C)(C)C5CC[C@]43C)C12 (stereo partly shown) [Compound 5c, 28-O-Propanoylbetulin] yielded a melting point of 160 to 162 °C, an IC50 [1] of 8.1 ± 0.9 µg/mL (≈ 16.2 µM) and an IC50 (P388 (mouse leukemia)) of 3.3 ± 0.8 µg/mL (≈ 6.62 µM). It also gave an IC50 [2] of 12.1 ± 4.4 µg/mL (≈ 24.3 µM) and an IC50 [4] of 29.2 ± 24.4 µg/mL (≈ 58.5 µM).

Molecule C#CC(=O)OC[C@]12CCC(C(=C)C)C1C1CCC3[C@@]4(C)CC[C@H](OC(=O)C#C)C(C)(C)C4CC[C@@]3(C)[C@]1(C)CC2 (stereo partly shown) [Compound 6a, 3,28-O,O'-Dipropynoylbetulin] has a melting point of 102 to 104 °C, an IC50 [1] of 9.9 ± 7 µg/mL (≈ 18.1 µM) and an IC50 (P388 (mouse leukemia)) of 31.9 ± 1.4 µg/mL (≈ 58.3 µM). The IC50 [2] was 16.2 ± 4.3 µg/mL (≈ 29.6 µM) and the IC50 [4] was 9.5 ± 1.9 µg/mL (≈ 17.4 µM).
